In the NIST ThermoML archive (doi:10.1021/je800998u):

Assay: molar heat capacity at constant pressure
Conditions: 101.33 kPa, Small (less than 1 g) adiabatic calorimetry

CC(C)COCC(C)C [diisobutyl ether]
Conditions | molar heat capacity at constant pressure [J/K/mol]
140.67 K, Crystal 2 | 147.66
141.68 K, Crystal 2 | 148.47
142.69 K, Crystal 2 | 150.03
143.69 K, Crystal 2 | 151.09
144.7 K, Crystal 2 | 152.64
145.71 K, Crystal 2 | 153.6
146.72 K, Crystal 2 | 154.66
147.73 K, Crystal 2 | 156
148.74 K, Crystal 2 | 157.59
149.74 K, Crystal 2 | 159.31
150 K, Crystal 2 | 158.9
150.75 K, Crystal 2 | 160.48
151.76 K, Crystal 2 | 162.28
152.76 K, Crystal 2 | 163.63
153.77 K, Crystal 2 | 165.04
154.77 K, Crystal 2 | 166.47
155.77 K, Crystal 2 | 168.44
156.77 K, Crystal 2 | 170.7
157.77 K, Crystal 2 | 172.77
158.77 K, Crystal 2 | 174.55
159.76 K, Crystal 2 | 176.89
160 K, Crystal 2 | 171.1
160.22 K, Crystal 2 | 177.95
161.05 K, Crystal 2 | 179.83
161.87 K, Crystal 2 | 182.1
162.69 K, Crystal 2 | 184.81
163.5 K, Crystal 2 | 188
164.29 K, Crystal 2 | 190.62
165.08 K, Crystal 2 | 194.31
165.86 K, Crystal 2 | 198.38
166.64 K, Crystal 2 | 203.33
167.41 K, Crystal 2 | 209.11
168.16 K, Crystal 2 | 214.73
168.9 K, Crystal 2 | 223.05
169.63 K, Crystal 2 | 234.85
170.31 K, Crystal 2 | 282.57
170.71 K, Crystal 1 | 172.2
170.71 K, Crystal 2 | 184.2
171.96 K, Crystal 1 | 180.54
172.76 K, Crystal 1 | 180.42
173.54 K, Crystal 1 | 180.19
174.34 K, Crystal 1 | 181.2
175.14 K, Crystal 1 | 182.92
175.93 K, Crystal 1 | 183.75
176.72 K, Crystal 1 | 185.64
177.5 K, Crystal 1 | 187.45
178.28 K, Crystal 1 | 189.66
179.05 K, Crystal 1 | 192.53
179.81 K, Crystal 1 | 195.2
180 K, Crystal 1 | 193.8
190.4 K, Crystal 1 | 218
190.4 K, Liquid | 241.1
200 K, Liquid | 243.7
205.51 K, Liquid | 245.31
207.14 K, Liquid | 245.51
208.62 K, Liquid | 246.05
210 K, Liquid | 246.3
210.09 K, Liquid | 246.27
211.57 K, Liquid | 246.56
213.04 K, Liquid | 247.06
214.48 K, Liquid | 247.32
215.95 K, Liquid | 247.78
217.42 K, Liquid | 248.16
218.89 K, Liquid | 248.58
220 K, Liquid | 248.9
220.35 K, Liquid | 248.91
221.82 K, Liquid | 249.16
223.28 K, Liquid | 249.85
224.74 K, Liquid | 250.34
226.2 K, Liquid | 250.85
227.65 K, Liquid | 251.29
229.11 K, Liquid | 251.85
230 K, Liquid | 251.9
230.56 K, Liquid | 252.2
232.02 K, Liquid | 252.69
233.46 K, Liquid | 252.85
234.91 K, Liquid | 253.44
236.36 K, Liquid | 253.83
237.75 K, Liquid | 254.25
239.2 K, Liquid | 254.81
240 K, Liquid | 255
240.64 K, Liquid | 255.42
242.08 K, Liquid | 255.9
243.52 K, Liquid | 256
244.96 K, Liquid | 256.76
246.39 K, Liquid | 256.99
247.83 K, Liquid | 257.45
249.26 K, Liquid | 257.99
250 K, Liquid | 258.3
250.69 K, Liquid | 258.39
252.11 K, Liquid | 258.84
253.54 K, Liquid | 259.49
254.96 K, Liquid | 259.95
256.39 K, Liquid | 260.62
257.8 K, Liquid | 260.96
259.22 K, Liquid | 261.75
260 K, Liquid | 261.8
260.56 K, Liquid | 261.97
261.97 K, Liquid | 262.87
263.39 K, Liquid | 262.95
264.79 K, Liquid | 263.61
266.2 K, Liquid | 263.86
267.6 K, Liquid | 264.22
269 K, Liquid | 264.8
270 K, Liquid | 265.3
270.4 K, Liquid | 265.39
271.8 K, Liquid | 265.93
273.19 K, Liquid | 266.68
274.58 K, Liquid | 266.81
275.97 K, Liquid | 267.53
277.36 K, Liquid | 267.85
278.74 K, Liquid | 268.3
280 K, Liquid | 269
281.5 K, Liquid | 269.6
282.78 K, Liquid | 270.45
284.16 K, Liquid | 270.8
285.53 K, Liquid | 271.08
286.9 K, Liquid | 271.46
288.26 K, Liquid | 271.98
289.62 K, Liquid | 272.75
290 K, Liquid | 272.8
290.98 K, Liquid | 273.36
292.34 K, Liquid | 273.73
293.69 K, Liquid | 274.04
295.04 K, Liquid | 275.21
296.39 K, Liquid | 275.08
297.73 K, Liquid | 275.64
298.15 K, Liquid | 276.08
299.07 K, Liquid | 276.44
300 K, Liquid | 276.8
300.41 K, Liquid | 277.1
301.75 K, Liquid | 277.51
303.04 K, Liquid | 278.07
304.14 K, Liquid | 278.56
305.42 K, Liquid | 279.01
306.7 K, Liquid | 279.35
307.97 K, Liquid | 279.87
309.24 K, Liquid | 280.81
310 K, Liquid | 280.8
310.5 K, Liquid | 280.87
311.76 K, Liquid | 281.46
313.02 K, Liquid | 282.03
314.27 K, Liquid | 282.55
315.52 K, Liquid | 282.93
316.76 K, Liquid | 283.81
318 K, Liquid | 284.25
319.23 K, Liquid | 284.87
320 K, Liquid | 285
320.46 K, Liquid | 285.2
321.69 K, Liquid | 285.88
322.91 K, Liquid | 286.38
323.9 K, Liquid | 286.65
325.11 K, Liquid | 287.21
326.32 K, Liquid | 287.74
327.53 K, Liquid | 288.35
328.73 K, Liquid | 288.89
329.92 K, Liquid | 289.24
330 K, Liquid | 289.5
331.11 K, Liquid | 289.99
332.3 K, Liquid | 290.62
333.48 K, Liquid | 291.36
334.66 K, Liquid | 291.41
335.83 K, Liquid | 292.26
337 K, Liquid | 292.85
338.16 K, Liquid | 293.71
339.32 K, Liquid | 294.5
340 K, Liquid | 294.7
340.48 K, Liquid | 295.14
343.62 K, Liquid | 297.13
344.76 K, Liquid | 297.38
345.9 K, Liquid | 297.62
347.04 K, Liquid | 298.5
348.17 K, Liquid | 299
350 K, Liquid | 300
350.41 K, Liquid | 300.11
351.51 K, Liquid | 300.37
352.61 K, Liquid | 301.47
353.7 K, Liquid | 302.2
354.79 K, Liquid | 302.27
355.88 K, Liquid | 302.92
356.96 K, Liquid | 303.07
358.04 K, Liquid | 303.49
359.11 K, Liquid | 304.07
359.83 K, Liquid | 304.07
360 K, Liquid | 304.4
360.9 K, Liquid | 304.89
361.96 K, Liquid | 305.2
363.02 K, Liquid | 305.35
364.07 K, Liquid | 305.71
365.12 K, Liquid | 305.76
366.14 K, Liquid | 306.97
367.16 K, Liquid | 307.23
368.17 K, Liquid | 308
369.17 K, Liquid | 308.72
370 K, Liquid | 308.9
370.15 K, Liquid | 309.38
371.14 K, Liquid | 309.88
372.11 K, Liquid | 310.26
